Source: patent US10947188B2, “Small molecule ferroptosis inducers” (THE TRUSTEES OF COLUMBIA UNIVERSITY IN THE CITY OF NEW YORK, priority 2016, dated 2021)

System: BJeLR
Test: Modulatory profiling: Alamar Blue viability, lethal compound cotreated with death modulator (EC50, AUC); for AUC, modulator BJ.3MA: reference of the scale not given here; for AUC, modulator BJ.ALLN: reference of the scale not given here; for AUC, modulator BJ.Boc D: reference of the scale not given here; for AUC, modulator BJ.CHX: reference of the scale not given here; for AUC, modulator BJ.Co2+: reference of the scale not given here; for AUC, modulator BJ.DPQ: reference of the scale not given here; for AUC, modulator BJ.Gd3+: reference of the scale not given here; for AUC, modulator BJ.LNAME: reference of the scale not given here; for AUC, modulator BJ.NAD+: reference of the scale not given here; for AUC, modulator BJ.NMMA: reference of the scale not given here; for AUC, modulator BJ.Nec-1: reference of the scale not given here; for AUC, modulator BJ.Pepstatin: reference of the scale not given here; for AUC, modulator BJ.TLCK: reference of the scale not given here
Assay type: cell-based, human
Parameters: AUC, modulator BJ.Gd3+ / AUC, modulator BJ.LNAME / AUC, modulator BJ.Lmin / AUC, modulator BJ.3MA / AUC, modulator BJ.ALLN / AUC, modulator BJ.Boc D / AUC, modulator BJ.CHX / AUC, modulator BJ.Co2+ / AUC, modulator BJ.Nec-1 / AUC, modulator BJ.Pepstatin / AUC, modulator BJ.TLCK / AUC, modulator BJ.atoc / AUC, modulator BJ.trolox / AUC, modulator BJ.zVAD: unit not given beside the values
Conditions: for AUC, modulator BJ.3MA / AUC, modulator BJ.ALLN / AUC, modulator BJ.Boc D / AUC, modulator BJ.CHX / AUC, modulator BJ.Co2+ / AUC, modulator BJ.DPQ / AUC, modulator BJ.Gd3+ / AUC, modulator BJ.LNAME / AUC, modulator BJ.Lmin/NAD+ / AUC, modulator BJ.Lmin / AUC, modulator BJ.NAD+ / AUC, modulator BJ.NMMA / AUC, modulator BJ.Nec-1 / AUC, modulator BJ.Pepstatin / AUC, modulator BJ.TLCK / AUC, modulator BJ.atoc / AUC, modulator BJ.trolox / AUC, modulator BJ.zVAD: BJeLR cells, modulatory profile value (AUC); for AUC, modulator BJ.3MA: lethal compound cotreated with modulator 3MA; for AUC, modulator BJ.ALLN: lethal compound cotreated with modulator ALLN; for AUC, modulator BJ.Boc D: lethal compound cotreated with modulator Boc D; for AUC, modulator BJ.CHX: lethal compound cotreated with modulator CHX; for AUC, modulator BJ.Co2+: lethal compound cotreated with modulator Co2+; for AUC, modulator BJ.DPQ: lethal compound cotreated with modulator DPQ; for AUC, modulator BJ.Gd3+: lethal compound cotreated with modulator Gd3+; for AUC, modulator BJ.LNAME: lethal compound cotreated with modulator LNAME; for AUC, modulator BJ.Lmin/NAD+: lethal compound cotreated with modulator Lmin/NAD+; for AUC, modulator BJ.Lmin: lethal compound cotreated with modulator Lmin; for AUC, modulator BJ.NAD+: lethal compound cotreated with modulator NAD+; for AUC, modulator BJ.NMMA: lethal compound cotreated with modulator NMMA; for AUC, modulator BJ.Nec-1: lethal compound cotreated with modulator Nec-1; for AUC, modulator BJ.Pepstatin: lethal compound cotreated with modulator Pepstatin; for AUC, modulator BJ.TLCK: lethal compound cotreated with modulator TLCK; for AUC, modulator BJ.atoc: lethal compound cotreated with modulator atoc; for AUC, modulator BJ.trolox: lethal compound cotreated with modulator trolox; for AUC, modulator BJ.zVAD: lethal compound cotreated with modulator zVAD; for EC50: Homo sapiens, BJeLR, 48 h
[1] = cotreated with antioxidant Trolox
[2] = cotreated with antioxidant atoc
[3] = cotreated with iron-chelator Lmim

Structure (SMILES)	AUC, modulator BJ.3MA	AUC, modulator BJ.ALLN	AUC, modulator BJ.Boc D	AUC, modulator BJ.CHX	AUC, modulator BJ.Co2+	AUC, modulator BJ.DPQ	AUC, modulator BJ.Gd3+	AUC, modulator BJ.LNAME	AUC, modulator BJ.Lmin/NAD+	AUC, modulator BJ.Lmin	AUC, modulator BJ.NAD+	AUC, modulator BJ.NMMA	AUC, modulator BJ.Nec-1	AUC, modulator BJ.Pepstatin	AUC, modulator BJ.TLCK	AUC, modulator BJ.atoc	AUC, modulator BJ.trolox	AUC, modulator BJ.zVAD	other results
Nc1ccccc1NC(=O)c1ccc(CNC(=O)OCc2cccnc2)cc1 [MS275]	−0.02606	−0.03932	0.08944	0.2266	0.2326	−0.009656	0.023	0.02321	0.1569	−0.001183	0.1269	−0.003779	−0.01329	−0.01824	0.08474	−0.008452	−0.001137	0.1415	
COc1ccc(Nc2ccc3c(c2)=NC2(CCCCC2)[N+]=3[O-])cc1 [CIL9]	0.0465	−0.1202	−0.06171	0.03696	−0.009162	−0.01225	−0.01038	0.01336	0.01499	−0.03967	0.0007181	−0.01541	0.02689	0.0182	−0.01752	0.02754	0.05397	−0.02708	
N/C(=N\OC(=O)C12CC3CC(CC(C3)C1)C2)c1ccccc1 [CIL41]	0.117	−0.08211	−0.06374	−0.0571	−0.02378	0.02161	−0.006767	0.00307	0.1504	0.2032	−0.0198	0.04219	0.09368	−0.03128	−0.02463	0.2729	0.1871	0.03607	EC50 (DMSO): 3170 nM; EC50 (cotreated with Lmim_NAD): 22600 nM; EC50 [1]: 23200 nM; EC50 [2]: 36600 nM; EC50 [3]: 22400 nM
O=C1c2ccccc2-c2onc3ccc(Oc4ccccc4)c1c23 [CIL6]	0.1191	−0.0496	−0.05247	0.1353	0.06961	0.01365	0.006848	−0.02637	−0.0638	−0.03874	0.02657	0.006287	0.01237	0.03711	−0.01536	0.01482	−0.006777	−0.003192	
O=C(CCl)N(c1ccccc1)c1c[nH]c2ccccc12 [CIL69]	0.07713	−0.0005222	−0.003228	−0.03495	0.1724	0.02521	0.02983	0.005201	0.1449	0.1799	0.02203	−0.02133	0.1721	0.0531	0.1963				EC50 (DMSO): 193 nM; EC50 (cotreated with Lmim_NAD): 889 nM; EC50 [1]: 2050 nM; EC50 [2]: 1780 nM; EC50 [3]: 976 nM
O=c1c(Cl)c(Cl)cnn1-c1ccc(Cl)c(C(F)(F)F)c1 [CIL25]	0.02374	−0.07209	−0.009758	−0.0273	−0.003244	0.001852	0.04216	−0.004428	0.09246	0.01628	0.06106	0.01683	0.03297	−0.00415	−0.05889	0.02909	−0.001029	0.03879	
COc1cccc2c1C(=O)c1c(O)c3c(c(O)c1C2=O)C[C@@](O)(C(=O)CO)C[C@@H]3O[C@H]1C[C@H](N)[C@H](O)[C@H](C)O1 [Doxorubicin]	0.03113	0.01555	0.04966	0.1412	0.1971	0.004462	−0.01105	0.01382	0.1477	0.05475	0.1339	−0.007486	−0.003677	0.01775	0.03307	0.01689	0.01164	0.05543	
